Assay results from patent publication US4229466A, “Sesquiterpene derivatives having anti-complementary activity” (Otsuka Pharmaceutical Co., Ltd., priority 1977, dated 1980).
Values joined by “and” are separate entries in the source; they are usually repeats but may differ in a detail not shown here. Equal entries are not always repeated.

Assays:
[1] = tested on: Heymann-type Nephritis; assay: Therapeutic effects on Heymann-type nephritis (proteinuria); format: in vivo, male Wistar rats; details: for amount of proteinurea, Average: average of 3 replications; for amount of proteinurea: individual replication
Description: Male Wistar rats with a body weight of 180 to 200 g were used in the test. Rat kidney cortex was extracted, and homogenized with an equal quantity by volume of a physiological saline solution. The homogenate was centrifuged at 1500 G for 1 hour. The supernatant liquid was purified in accordance with the method of T. S. […] The resulting mixture was injected intraperitoneally into isologous rats in an amount of 0.5 ml per rat. […] (This period was about 6 to 8 weeks.) […] CP was used as a comparison compound, and physiological saline solution was used as a control. Three replications were conducted for each test compound.

[2] = tested on: Nephrotoxin-Type Nephritis; assay: Therapeutic effect on nephrotoxin-type nephritis (proteinuria); format: in vivo, male Wistar rats; details: for amount of proteinurea, Average: average of 3 replications; for amount of proteinurea, Average / amount of proteinurea: 7 days; for amount of proteinurea: individual replication
Source text: Rat nephrotoxin ("NT" for brevity) was obtained as described below. Rat kidney cortex was homogenized with an equal quantity of physiological saline. The homogenized mixture was mixed with Freund's complete adjuvant (a product of Difco Company) in a volume ratio of 1:1. Two milliliters of the resulting mixture was intramuscularly injected into a rabbit (body weight 3,100 g) to immunize the rabbit. A month and a half later, blood was taken from the heart of the rabbit and serum was obtained. The resulting serum was inactivated at 56° C. for 30 minutes, then salted out with a 40% saturated aqueous solution of ammonium sulfate, and fractionated. The γ-globulin (IgG) fraction was collected to obtain NT.
The evaluation was carried out using male Wistar rats with a body weight of 150 to 160 g with three replications for each test compound. The test compound was intraperitoneally administered once every 24 hours for seven days. One hour after the administration of the test compound on the third day, the NT was applied. The NT was intravenously injected in an amount of 1 ml at a tail vein of each rat. Chlorophyllin (CP) was used as a comparison compound, and physiological saline solution was used as a control.
The proteinuria level (total amount excreted into the urine over a 24 hour period) was measured using turbidometry employing bovine serum albumin as a control by means of sulfosalicylic acid.

[3] = Acute toxicity on intravenous administration to mice; details: mouse, in vivo
[4] = tested on: complement serum (guinea pig complement); assay: Anti-complement activity: 50% inhibition of hemolysis of sensitized erythrocytes; format: cell-based; details: Cavia porcellus, Erythrocyte, 1 h, 37° C., 60 minutes, guinea pig complement diluted 150 times, OD413, read-out: Anti-Complement Activity Value (50% hemolysis inhibitory activity value)
Description: The anti-complement activity was measured and confirmed by the testing method described in Meneki Kagaku (Immuno-Chemistry), Yuichi Yamamura et al., Ed. pages 830-834, Asakura Shoten, Tokyo, Japan (1973). Specifically,a test tube was charged with 0.5 ml of an aqueous dispersion of each of the test compounds, 0.5 ml of sensitized erythrocytes (EA) containing 1×10^8 cells/ml, 1 ml of a 5-fold diluted solution of a Veronal buffer solution containing gelatin, Ca^++ and Mg^++ (GVB^++), and 0.5 ml of complement serum (guinea pig complement) diluted to 150 times with the GVB^++. The mixture was maintained hot at 37° C. for 60 minutes. Then, 5 ml of an ice-cold physiological saline solution was added thereto, and the mixture was centrifuged. […] The 50% hemolysis inhibitory activity value (γ/ml) measured by the above method is shown in Table 2 below for each test compound.

[5] = Before Administration, group of 3 mg per rat i.p.
[6] = Day 1, 3 mg per rat i.p. once a day, 7 days
[7] = Day 4, 3 mg per rat i.p. once a day, 7 days
[8] = Day 7, 3 mg per rat i.p. once a day, 7 days
[9] = Day 14, 3 mg per rat i.p. once a day, 7 days
[10] = Day 21, 3 mg per rat i.p. once a day, 7 days
[11] = Day 1, 3 mg per rat i.p. once daily
[12] = Day 4, 3 mg per rat i.p. once daily
[13] = Day 7, 3 mg per rat i.p. once daily
[14] = Day 10, 3 mg per rat i.p. once daily
[15] = Before Administration, group of 5 mg per rat i.p.
[16] = Day 1, 5 mg per rat i.p. once a day, 7 days
[17] = Day 4, 5 mg per rat i.p. once a day, 7 days
[18] = Day 7, 5 mg per rat i.p. once a day, 7 days
[19] = Day 14, 5 mg per rat i.p. once a day, 7 days
[20] = Day 21, 5 mg per rat i.p. once a day, 7 days
[21] = Day 1, 5 mg per rat i.p. once daily
[22] = Day 4, 5 mg per rat i.p. once daily
[23] = Day 7, 5 mg per rat i.p. once daily
[24] = Day 10, 5 mg per rat i.p. once daily

## CC1CCC2C(C)(C)C(O)C(O)CC2(C)C12Cc1c(O)cc(C=CC(=O)O)c(C=CC(=O)O)c1O2 (stereo not drawn) [(7), 6,7-Dihydroxy-2,5,5,8a-tetramethyl-1,2,3,4,4a,5,6,7,8,8a-decahydronaphthalene-1-spiro-2'-[6',7'-di-(2-carboxyvinyl)-4'-hydroxy-2',3'-dihydrobenzofuran]]
[1]; test of Table 4, result in words
  activity of curing Heymann-type nephritis: a substantial activity of curing Heymann-type nephritis
[2]; same test as Table 3, result in words
  inhibition of the primary reaction of nephrotoxin-type nephritis: found to inhibit the primary reaction
[3]
  LD50: 150 mg/kg
[4]
  IC50: 80 µg/mL

## CC1CCC2C(C)(C)C(O)C(O)CC2(C)C12Cc1c(O)cc(C=O)c(C=O)c1O2 (stereo not drawn) [(1), 6,7-Dihydroxy-2,5,5,8a-tetramethyl-1,2,3,4,4a,5,6,7,8,8a-decahydronaphthalene-1-spiro-2'-(6',7'-diformyl-4'-hydroxy-2',3'-dihydrobenzofuran)]
[1]; [5]
  amount of proteinurea, Average: 116 mg/day
  amount of proteinurea: 95 mg/day and 132 mg/day and 121 mg/day
[1]; [6]
  amount of proteinurea, Average: 111 mg/day
  amount of proteinurea: 90 mg/day and 125 mg/day and 120 mg/day
[1]; [7]
  amount of proteinurea, Average: 61 mg/day
  amount of proteinurea: 47 mg/day and 65 mg/day and 70 mg/day
[1]; [8]
  amount of proteinurea, Average: 26 mg/day
  amount of proteinurea: 17 mg/day and 35 mg/day and 27 mg/day
[1]; [9]
  amount of proteinurea, Average: 11 mg/day
  amount of proteinurea: 9 mg/day and 15 mg/day and 10 mg/day
[1]; [10]
  amount of proteinurea, Average: 10 mg/day
  amount of proteinurea: 10 mg/day and 12 mg/day and 9 mg/day
[2]; [11]
  amount of proteinurea, Average: 2.8 mg/day
  amount of proteinurea: 2.5 mg/day and 4.3 mg/day and 1.7 mg/day
[2]; [12]
  amount of proteinurea, Average: 1.6 mg/day
  amount of proteinurea: 1.5 mg/day and 2.1 mg/day and 1.1 mg/day
[2]; [13]
  amount of proteinurea, Average: 1.2 mg/day
  amount of proteinurea: 0.8 mg/day and 1.8 mg/day and 0.9 mg/day
[2]; [14]
  amount of proteinurea, Average: 8 mg/day
  amount of proteinurea: 8 mg/day and 10 mg/day and 7 mg/day
[3]
  LD50: 40 mg/kg
[4]
  IC50: 10 µg/mL

## CC1CCC2C(C)(C)C(O)C(O)CC2(C)C12Cc1c(O)cc(C=O)c(C(=O)O)c1O2 (stereo not drawn) [(67), Disodium 6,7-dihydroxy-2,5,5,8a-tetramethyl-1,2,3,4,4a,5,6,7,8,8a-decahydronaphthalene-1-spiro-2'-(7'carboxylate-6'-formyl-4'-oxide-2',3'-dihydrobenzofuran)]
[1]; [15]
  amount of proteinurea, Average: 118 mg/day
  amount of proteinurea: 117 mg/day and 132 mg/day and 105 mg/day
[1]; [16]
  amount of proteinurea, Average: 117 mg/day
  amount of proteinurea: 109 mg/day and 127 mg/day and 114 mg/day
[1]; [17]
  amount of proteinurea, Average: 59 mg/day
  amount of proteinurea: 59 mg/day and 67 mg/day and 51 mg/day
[1]; [18]
  amount of proteinurea, Average: 30 mg/day
  amount of proteinurea: 23 mg/day and 41 mg/day and 25 mg/day
[1]; [19]
  amount of proteinurea, Average: 14 mg/day
  amount of proteinurea: 13 mg/day and 17 mg/day and 11 mg/day
[1]; [20]
  amount of proteinurea, Average: 11 mg/day
  amount of proteinurea: 9 mg/day and 13 mg/day and 12 mg/day
[2]; [21]
  amount of proteinurea, Average: 3.0 mg/day
  amount of proteinurea: 2.7 mg/day and 4.1 mg/day and 2.3 mg/day
[2]; [22]
  amount of proteinurea, Average: 1.7 mg/day
  amount of proteinurea: 1.8 mg/day and 2.0 mg/day and 1.3 mg/day
[2]; [23]
  amount of proteinurea, Average: 1.1 mg/day
  amount of proteinurea: 0.7 mg/day and 1.5 mg/day and 1.2 mg/day
[2]; [24]
  amount of proteinurea, Average: 9 mg/day
  amount of proteinurea: 9 mg/day and 12 mg/day and 7 mg/day
[3]
  LD50: 500 mg/kg
[4]
  IC50: 60 µg/mL
